From patent US6913895B1, “Methods for assaying transglycosylase reactions, and for identifying inhibitors thereof” (Advanced Medicine East, Inc., priority 1999, dated 2005)
Values after ≈ are worked out from the molar mass of the structure shown. “Also recorded” adds a separate entry of the source. Read-outs that look alike come from different tables or passages of the source. Marks after values point to notes of the source that are not given here.

Assays:
E. faecium 49624 = assay type: cell-based
E. faecium CL4931 (VanA) = assay type: cell-based
E. faecalis 29212 = assay type: cell-based
[1] = test system: E. faecalis CL4877 (VanB); assay type: cell-based
S. aureus 29213 = assay type: cell-based
transglycosylase [2] = assay: Transglycosylase assay: peptidoglycan formation from lipid II accumulated in situ in bacterial membranes; assay type: biochemical, E. coli; conditions: for inhibition of peptidoglycan formation: inhibitor added after formation of lipid II, Triton X-100 removed, 2 hours incubation, paper chromatography
Method: Reactions were performed in the following buffer: 50 mM Tris (pH=8.0), 42 mM MgAc, 208 mM KCl, and 0.1% Triton X-100®. Each reaction was performed in a 50 ul reaction volume, containing 25 μg French Pressed bacterial membranes, 0.5 nmoles biotinylated UDP-MurNAc-pentapeptide 10% DMSO final concentration (added in conjunction with inhibitor), and 0.5 uM 14C-GlcNAc (≈20,000 CPM). All components except 14C-GlcNAc were pre-incubated together for 10 min at room temperature. The reactions were incubated an additional 1 hour after addition of ^14C-GlcNAc.
To make the reaction volume more manageable, the Triton was removed with the addition of Detergent-Out resin (Geno-Technology, St. Louis, Mo.). After binding up the inhibiting detergent, the reaction was further incubated for 2 hours to allow for transglycosylation to proceed.
The above-described methods of the invention were used to analyze the activity of three inhibitors. The assay included separate samples of tunicamycin, moenomycin, or bacitracin in various concentrations. These inhibitors were added to their respective samples after formation of lipid II, with the subsequent removal of the transglycosylation blocker Triton X-100®. After 2 hours incubation, aliquots of the solubilized products were analyzed by ascending paper chromatography. The amount of lipid II converted into peptidoglycan is represented by the amount of radioactivity measured in CPM remaining at the origin for each reaction.
Compounds TS0517 (chlorobiphenyl-vancomycin), TS0518 (chlorobiphenyl-desleucyl-vancomycin), TS0523, TS1017, and TS30663 were all assayed using the above-described assay, in which the inhibitors were added to their respective samples after formation of lipid II, with the subsequent removal of Triton X-100®. After 2 hours incubation, aliquots of the solubilized products were analyzed by ascending paper chromatography.

lipid II formation = assay: Lipid II formation assay in bacterial membranes; assay type: biochemical, E. coli; conditions: for inhibition of lipid II formation: inhibitors added with labeled UDP-GlcNAc and UDP-MurNAc-tetrapeptide (data not shown)
transglycosylase [3] = assay: Transglycosylase assay: peptidoglycan formation from lipid II accumulated in situ in bacterial membranes; assay type: biochemical, E. coli; conditions: UDP-MurNAc-tetrapeptide substrate, inhibitors added after Triton X-100 removal, 2 hour incubation
peptidoglycan synthesis = conditions: at 100 μg/ml, A. viridens membranes; cited from earlier work
[4] = E. faecium 49624, vancomycin-sensitive
[5] = E. faecium CL4931 (VanA), vancomycin resistant
[6] = E. faecalis 29212, vancomycin-sensitive
[7] = E. faecalis CL4877 (VanB), vancomycin resistant
[8] = S. aureus 29213, vancomycin-sensitive

| Compound | MIC (E. faecium 49624; [4]) | MIC (E. faecium CL4931 (VanA); [5]) [µg/mL] | MIC (E. faecalis 29212; [6]) [µg/mL] | MIC [1, 7] [µg/mL] | MIC (S. aureus 29213; [8]) [µg/mL] | inhibition of peptidoglycan formation (transglycosylase [2]) | inhibition of lipid II formation (lipid II formation) | inhibition of peptidoglycan synthesis (transglycosylase [3]) | MIC (E. faecium 49624; Enterococcus faecium, 49624) [µg/mL] | MIC (E. faecium CL4931 (VanA); Enterococcus faecium) [µg/mL] | MIC (E. faecalis 29212; Enterococcus faecalis, 29212) [µg/mL] | MIC ([1]; Enterococcus faecalis) [µg/mL] | MIC (S. aureus 29213; Staphylococcus aureus, 29213) [µg/mL] | inhibition of lipid II formation in vitro (lipid II formation; substrate with D-ala-D-ala dipeptide moiety) | potency in E. coli system relative to that measured in Allen et al. using A. viridens (transglycosylase [2]; UDP-MurNAc-pentapeptide or UDP-MurNAc-tetrapeptide) | inhibition of peptidoglycan synthesis, UDP-MurNAc-pentapeptide vs UDP-MurNAc-tetrapeptide (transglycosylase [2]; comparison of the two precursor substrates) | IC50 / effect compared with assay without transglycosylation blocker (transglycosylase [2]; with vs without Triton X-100 blocker) | inhibition of peptidoglycan synthesis (peptidoglycan synthesis) [%] | inhibition of peptidoglycan formation (transglycosylase [2]; listed as tunicamycin) |
| --- | --- | --- | --- | --- | --- | --- | --- | --- | --- | --- | --- | --- | --- | --- | --- | --- | --- | --- | --- |
| C[C@@H]1O[C@@H](O[C@H]2[C@H](Oc3c4cc5cc3Oc3ccc(cc3Cl)[C@@H](O)[C@@H](N)C(=O)N[C@@H](CC(N)=O)C(=O)N[C@H]5C(=O)NC3C(=O)NC(C(=O)N[C@H](C(=O)O)c5cc(O)cc(O)c5-c5cc3ccc5O)[C@H](O)c3ccc(c(Cl)c3)O4)O[C@H](CO)[C@@H](O)[C@@H]2O)C[C@](C)(NCc2ccc(-c3ccc(Cl)cc3)cc2)[C@@H]1O (mixture of isomers) [CBP-dl-vancomycin, chlorobiphenyl-desleucyl-vancomycin] | 1.56 µg/mL (≈ 1.02 µM) | 12.5 (≈ 8.21 µM) | 3.12 (≈ 2.05 µM) | 25 (≈ 16.4 µM) | 3.12 (≈ 2.05 µM) | showed inhibition of peptidoglycan formation | no inhibition of lipid II formation | far more effective | – | – | – | – | – | – | – | – | – | – | – |
| CN[C@H](CC(C)C)C(=O)N[C@H]1C(=O)N[C@@H](CC(N)=O)C(=O)N[C@H]2C(=O)N[C@H]3C(=O)N[C@H](C(=O)N[C@H](C(=O)O)c4cc(O)cc(O)c4-c4cc3ccc4O)[C@H](O)c3ccc(c(Cl)c3)Oc3cc2cc(c3O[C@@H]2O[C@H](CO)[C@@H](O)[C@H](O)[C@H]2O[C@H]2C[C@](C)(NCc3ccc(-c4ccc(Cl)cc4)cc3)[C@H](O)[C@H](C)O2)Oc2ccc(cc2Cl)[C@H]1O [CBP-vancomycin, chlorobiphenyl-vancomycin] | 0.062 µg/mL (≈ 0.0376 µM) | 12.5 (≈ 7.58 µM) | 0.25 (≈ 0.152 µM) | 12.5 (≈ 7.58 µM) | 0.25 (≈ 0.152 µM) | showed inhibition of peptidoglycan formation | no inhibition of lipid II formation | far more effective | – | – | – | – | – | – | – | – | – | – | – |
| CN[C@H](CC(C)C)C(=O)N[C@H]1C(=O)N[C@@H](CC(N)=O)C(=O)N[C@H]2C(=O)N[C@H]3C(=O)N[C@H](C(=O)N[C@H](C(=O)O)c4cc(O)cc(O)c4-c4cc3ccc4O)[C@H](O)c3ccc(c(Cl)c3)Oc3cc2cc(c3O[C@@H]2O[C@H](CO)[C@@H](O)[C@H](O)[C@H]2O[C@H]2C[C@](C)(N)[C@H](O)[C@H](C)O2)Oc2ccc(cc2Cl)[C@H]1O [Vancomycin, vancomycin] | – | – | – | – | – | – | – | only minimal inhibition | 1.25 (≈ 0.863 µM) | 1250 (≈ 863 µM) | 3.12 (≈ 2.15 µM) | 1250 (≈ 863 µM) | 1.25 (≈ 0.863 µM) | capable of inhibiting the formation of lipid II in vitro | – | – | – | – | – |
| moenomycin | >200^c μg/ml | 0.25 | 0.078 | 0.13 | 0.05 | sensitive | – | – | – | – | – | – | – | – | 4 orders of magnitude | equipotent inhibition | identical IC50 values; also recorded: substantially the same | < 35 | – |
| tunicamycin | – | – | – | – | – | no measurable effect | – | – | – | – | – | – | – | – | – | – | – | – | had no effect |
